Measurements published in the NIST ThermoML archive (doi:10.1016/j.jct.2005.04.010).

Tests used:
[1] = 101.33 kPa, Liquid
[2] = wn = mass fraction of the nth substance listed; settings: 101 kPa, Liquid, w1 = 0.5
[3] = activity coefficient (dimensionless); of the first substance listed, at infinite dilution; xn = mol fraction of the nth substance listed; settings: Liquid, x1 = 0

CCCCCCCCn1cc[n+](C)c1.O=S(=O)([N-]S(=O)(=O)C(F)(F)F)C(F)(F)F
[1]
Settings	mass density [kg/m3]
298.15 K	1325
303.15 K	1320
308.15 K	1316
313.15 K	1311
318.15 K	1307
323.15 K	1303
328.15 K	1298
333.15 K	1294
338.15 K	1289
343.15 K	1285

CCn1cc[n+](C)c1.O=S(=O)([N-]S(=O)(=O)C(F)(F)F)C(F)(F)F + CCCC[n+]1ccn(C)c1.O=S(=O)([N-]S(=O)(=O)C(F)(F)F)C(F)(F)F
[2]
Settings	mass density [kg/m3]
293.15 K	1483
298.15 K	1479
303.15 K	1474
308.15 K	1469
313.15 K	1464
318.15 K	1459
323.15 K	1454
328.15 K	1449
333.15 K	1445
338.15 K	1440
343.15 K	1435
348.15 K	1430
353.15 K	1425
358.15 K	1421

CCCC[N+]1(C)CCCC1.O=S(=O)([N-]S(=O)(=O)C(F)(F)F)C(F)(F)F
[1]
Settings	mass density [kg/m3]
298.15 K	1394
303.15 K	1390
308.15 K	1388
313.15 K	1386
318.15 K	1383
323.15 K	1381
328.15 K	1379
333.15 K	1377
338.15 K	1373
343.15 K	1370
348.15 K	1366

CCCCCC[n+]1ccn(C)c1.O=S(=O)([N-]S(=O)(=O)C(F)(F)F)C(F)(F)F
[1]
Settings	mass density [kg/m3]
293.15 K	1374
298.15 K	1370
303.15 K	1365
308.15 K	1361
313.15 K	1356
318.15 K	1352
323.15 K	1347
328.15 K	1343
333.15 K	1339
338.15 K	1334
343.15 K	1330
348.15 K	1325
353.15 K	1320
358.15 K	1315

CCCCC [pentane] + CCCCCCCCn1cc[n+](C)c1.O=S(=O)([N-]S(=O)(=O)C(F)(F)F)C(F)(F)F
activity coefficient, [3]
Settings	303.15 K	313.15 K	323.15 K	333.15 K
Chromatography	4.07	3.94	3.78	3.6
dilutor	3.98	3.92	3.87	3.84

C=CCCC [1-pentene] + CCCC[N+]1(C)CCCC1.O=S(=O)([N-]S(=O)(=O)C(F)(F)F)C(F)(F)F
[3], dilutor
Settings	activity coefficient
303.15 K	4.95
313.15 K	4.91
323.15 K	4.81
333.15 K	4.8
